In ChEMBL document CHEMBL4831537, “Biotransformation of Betulonic Acid by the Fungus Rhizopus arrhizus CGMCC 3.868 and Antineuroinflammatory Activity of the Biotransformation Products” (J Nat Prod, 2021) one finds IC50 and viability data, which are given here for 23 molecules.

In data set [1] the test system is BV-2. Nature of the data set: Anti-neuroinflammatory activity in mouse BV-2 cells assessed as inhibition of LPS-induced NO production incubated for 48 hrs by Griess reagent based assay. The note with it: BV-2, 48 h. In kind it is functional, cell-based.
Data set [2] in a line: Cytotoxicity against mouse BV-2 cells assessed as cell viability by MTT assay. Format: cell-based. The arrangement: concentration or dose not given beside the values. The conditions noted are these: read-out: Activity.

The term IC50 denotes the concentration that inhibits the measured activity by half. For `C=C(CO)[C@@H]1CC[C@]2(C(=O)O)CC[C@]3(C)[C@H](CC[C@@H]4[C@@]5(C)CCC(=O)C(C)(C)[C@@H]5CC[C@]43C)[C@@H]12`, the IC50 in data set [1] amounted to 35.1 µM. Moreover, the viability in data set [2] was determined as 104%.

`C=C(COC(C)=O)[C@@H]1CC[C@]2(C(=O)O)CC[C@]3(C)[C@H](CC[C@@H]4[C@@]5(C)CCC(=O)C(C)(C)[C@@H]5C[C@H](O)[C@]43C)[C@@H]12`: the IC50 in data set [1] came to 5.38 µM. The viability in data set [2] was found to be 109%.

On to `C=C(C)[C@@H]1C[C@@H](O)[C@]2(C(=O)O)CC[C@]3(C)[C@H](CC[C@@H]4[C@@]5(C)CCC(=O)C(C)(C)[C@@H]5C[C@H](O)[C@]43C)[C@@H]12`, for which the IC50 in data set [1] came out at 37.2 µM. Moreover, in data set [2], the viability came to 101%.

Consider `C=C(C)[C@@H]1CC[C@]2(C(=O)O)CC[C@]3(C)[C@H](CC[C@@H]4[C@@]5(C)CCC(=O)C(C)(C)[C@@H]5C[C@H](OC(C)=O)[C@]43C)[C@@H]12`, for which, in data set [1], the IC50 came to 10.3 µM. In addition, in data set [2], the viability was determined as 102%.

`C=C(C)[C@@H]1CC[C@]2(C(=O)O)CC[C@]3(C)[C@H](CC[C@@H]4[C@@]5(C)CCC(=O)C(C)(C)[C@@H]5CC[C@]43C)[C@@H]12` [BETUNOLIC ACID]: in data set [1], the IC50 was determined as 60.7 µM. The viability in data set [2] is 102%.

Regarding `C=C(C)[C@@H]1CC[C@]2(C(=O)O)C[C@H](O)[C@]3(C)[C@H](C[C@@H](O)[C@@H]4[C@@]5(C)CCC(=O)C(C)(C)[C@@H]5CC[C@]43C)[C@@H]12`, the IC50 in data set [1] is more than 100 µM. Also, the viability in data set [2] came to 103%.

On to `C=C(C)[C@@H]1CC[C@]2(C(=O)O[C@@H]3O[C@H](CO)[C@@H](O)[C@H](O)[C@H]3O)CC[C@]3(C)[C@H](CC[C@@H]4[C@@]5(C)CCC(=O)C(C)(C)[C@@H]5C[C@H](O)[C@]43C)[C@@H]12`, for which the IC50 in data set [1] turned out to be 4.69 µM. For the same molecule, in data set [2], the viability was 101%.

For `C=C(C)[C@@H]1CC[C@]2(C(=O)O)CC[C@]3(C)[C@H](CC[C@@H]4[C@@]5(C)CCC(=O)[C@@](C)(COC(C)=O)[C@@H]5C[C@H](O)[C@]43C)[C@@H]12`, the IC50 in data set [1] was 1.55 µM. Further, the viability in data set [2] turned out to be 103%.

Regarding `C=C(C)[C@@H]1CC[C@]2(C(=O)O)CC[C@]3(C)[C@H](CC[C@@H]4[C@@]5(C)CCC(=O)[C@@](C)(CO)[C@@H]5C[C@H](O)[C@]43C)[C@@H]12`, the IC50 in data set [1] amounted to 15.6 µM. Further, the viability in data set [2] came to 110%.

For `C=C(COC(C)=O)[C@@H]1CC[C@]2(C(=O)O)C[C@H](O)[C@]3(C)[C@H](CC[C@@H]4[C@@]5(C)CCC(=O)C(C)(C)[C@@H]5CC[C@]43C)[C@@H]12`, in data set [1], the IC50 is 76.6 µM. Besides, the viability in data set [2] came out at 101%.

For the molecule `C=C(C)[C@@H]1CC[C@]2(C(=O)O)CC[C@]3(C)[C@H](C[C@H](O)[C@@H]4[C@@]5(C)CCC(=O)C(C)(C)[C@@H]5C[C@H](O)[C@]43C)[C@@H]12`, the IC50 in data set [1] is more than 100 µM. Moreover, in data set [2], the viability worked out at 88.4%.

Regarding `C=C(C)[C@@H]1CC[C@]2(C(=O)O)CC[C@]3(C)[C@H](CC[C@@H]4[C@@]5(C)CC(=O)[C@H](O)C(C)(C)[C@@H]5C[C@H](O)[C@]43C)[C@@H]12`, in data set [1], the IC50 is more than 100 µM. Moreover, in data set [2], the viability came to 97.3%.

`C=C(C)[C@@H]1CC[C@]2(C(=O)O)CC[C@]3(C)[C@H](CC[C@@H]4[C@@]5(C)C[C@@H](O)C(=O)C(C)(C)[C@@H]5C[C@H](O)[C@]43C)[C@@H]12`: in data set [1], the IC50 is 64.8 µM. Also, the viability in data set [2] came out at 106%.

Take `C=C(CO)[C@@H]1CC[C@]2(C(=O)O)CC[C@]3(C)[C@H](CC[C@@H]4[C@@]5(C)CCC(=O)C(C)(C)[C@@H]5C[C@H](O)[C@]43C)[C@@H]12`: the IC50 in data set [1] came out at 11.1 µM. For the same molecule, the viability in data set [2] came to 103%.

Regarding `C=C(C)[C@@H]1CC[C@]2(C(=O)O)C[C@H](O)[C@]3(C)[C@H](CC[C@@H]4[C@@]5(C)CCC(=O)[C@@](C)(COC(C)=O)[C@@H]5CC[C@]43C)[C@@H]12`, the IC50 in data set [1] is 42.4 µM. Moreover, the viability in data set [2] was found to be 102%.

In the case of `CC(=O)[C@@H]1CC[C@]2(C(=O)O)CC[C@]3(C)[C@H](CC[C@@H]4[C@@]5(C)CCC(=O)C(C)(C)[C@@H]5C[C@H](O)[C@]43C)[C@@H]12`, in data set [1], the IC50 came to 53.9 µM. In data set [2], the viability worked out at 106%.

Turning to `C=C(C)[C@@H]1CC[C@]2(C(=O)O)CC[C@]3(C)[C@H](CC[C@@H]4[C@@]5(C)CCC(=O)C(C)(C)[C@@H]5C[C@H](O)[C@]43C)[C@@H]12`, the IC50 in data set [1] turned out to be 34.6 µM. The viability in data set [2] is 99.2%.

Regarding `C=C(COO)[C@@H]1CC[C@]2(C(=O)O)CC[C@]3(C)[C@H](CC[C@@H]4[C@@]5(C)CCC(=O)C(C)(C)[C@@H]5CC[C@]43C)[C@@H]12`, the IC50 in data set [1] was 24.8 µM. Further, the viability in data set [2] was determined as 101%.

`CC(=O)OC[C@@H](C)[C@@H]1CC[C@]2(C(=O)O)CC[C@]3(C)[C@H](CC[C@@H]4[C@@]5(C)CCC(=O)C(C)(C)[C@@H]5C[C@H](O)[C@]43C)[C@@H]12`: the 50% inhibitory concentration (IC50) in data set [1] was 66.3 µM. Moreover, the viability in data set [2] is 98.8%.

As for `C=C(C)[C@@H]1CC[C@]2(C(=O)O)C[C@H](O)[C@]3(C)[C@H](CC[C@@H]4[C@@]5(C)CCC(=O)[C@@](C)(CO)[C@@H]5C[C@H](O)[C@]43C)[C@@H]12`, the IC50 in data set [1] turned out to be 58.3 µM. Moreover, the viability in data set [2] was 105%.

As for `CNC(=N)NCCC[C@H](N)C(=O)O` [TILARGININE], the IC50 in data set [1] was determined as 21.4 µM. Besides, the viability in data set [2] was 110%.

In the case of `CC(=O)OC[C@H](C)[C@@H]1CC[C@]2(C(=O)O)CC[C@]3(C)[C@H](CC[C@@H]4[C@@]5(C)CCC(=O)C(C)(C)[C@@H]5C[C@H](O)[C@]43C)[C@@H]12`, in data set [1], the IC50 amounted to 61.2 µM. Moreover, the viability in data set [2] came to 99.5%.

For `C=C(C)[C@@H]1CC[C@]2(C(=O)O)C[C@H](O)[C@]3(C)[C@H](CC[C@@H]4[C@@]5(C)CCC(=O)C(C)(C)[C@@H]5C[C@H](O)[C@]43C)[C@@H]12`, the IC50 in data set [1] was found to be 93.7 µM. In data set [2], the viability came out at 101%.
